{"source": "paper PMC11173301", "about": "“On the Cholesterol Raising Effect of Coffee Diterpenes Cafestol and 16-O-Methylcafestol: Interaction with Farnesoid X Receptor” (International Journal of Molecular Sciences, 2024)", "molecular_target": "T1, FXR-LBD (FXR-WT; stabilized mutant FXR-CCEE) (Homo sapiens, UniProt Q96RI1)", "T1 construct": "gene NR1H4; plasmid from Prof; Jinsong Liu; CCEE = C432E/C466E", "T1 sequence (Q96RI1 225-472 isoform Q96RI1-2)": "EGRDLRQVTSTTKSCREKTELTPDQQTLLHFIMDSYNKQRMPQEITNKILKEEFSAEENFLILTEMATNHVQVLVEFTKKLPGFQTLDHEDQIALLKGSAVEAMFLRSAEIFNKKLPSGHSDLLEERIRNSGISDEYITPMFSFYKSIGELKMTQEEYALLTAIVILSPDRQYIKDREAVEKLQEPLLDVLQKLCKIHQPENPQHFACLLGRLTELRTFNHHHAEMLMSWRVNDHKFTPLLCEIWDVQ", "assay": "intrinsic fluorescence titration, Stern-Volmer", "type": "binding", "conditions": "[…] protein, phosphate pH […] NaCl, […] glycerol, […] °C; no inner filter correction", "text": "intrinsic fluorescence titration, Stern-Volmer on FXR-LBD (FXR-WT; stabilized mutant FXR-CCEE) | With GG, the numbers for the FXR-WT and the FXR-CCEE mutant were quite different"}
{"smiles": "C/C=C1\\C(=O)C[C@H]2[C@@H]3CCC4=CC(=O)CC[C@]4(C)[C@H]3CC[C@]12C", "note": "[guggulsterone]", "values": [{"measurement": "Stern-Volmer constant (KSV)", "value": "33650 ± 5000", "unit": "L/mol"}]}
